Measured values: patent EP0461815A1, “Anti-HBV pyrimidine nucleoside” (THE WELLCOME FOUNDATION LIMITED, priority 1990, dated 1991)
Read-outs that look alike come from different tables or passages of the source.

Tests used:
[1] = Cell toxicity, cell growth inhibition assay (MTT uptake); type: cell-based; details: monkey, Vero cells, 50% inhibition of cell viability at 96 hours, read-out: cell toxicity (CCID₅₀)
Experimental: Cell toxicity is assessed in a cell growth inhibition assay. Subconfluent cultures of Vero cells grown on 96-well microtiter dishes are exposed to different dilutions of drug, and cell viability determined daily on replicate cultures using uptake of a tetrazolium dye (MTT). The concentration requried for a 50% inhibition of cell viability at 96 hours is termed CCID₅₀.

Hepatitis B Virus (HBV) = assay: Anti-HBV activity in HBV producer cell line HepG2 2.2.15: reduction of extracellular virion DNA and intracellular replicative intermediates; type: cell-based
Experimental: The human HBV producer cell line of HepG2, 2.2.15, described and characterized by Sells et al., PNAS 84:1005, 1987 and J. Virol. […] This cell line was utilized in vitro to identify compounds with anti-HBV activity.
Monolayer cultures were treated with 1-100µM of the active compound 1-(β-D-arabinofuranosyl)-5-prop-1-ynyluracil, for ten days. Supernatant media containing extracellular virion DNA (Dane particles) were harvested on day ten, treated with proteinase K (1 mg/mL) and sodium dodecyl sulfate (1%), and incubated at 50°C for one hour. DNA was extracted with equal volumes of phenol followed by chloroform and then precipitated by ammonium acetate and propanol. The DNA precipitate was dissolved and collected on nitrocellulose using the procedure of Schleicher and Schuell (S & S, 10 Optical Ave., Keene, NH 03431, Publication #700, 1987), and treated as described by Southern, J. Mol. Biol. 98:503, 1975. Cells were harvested, and the intracellular DNA. was obtained after cell lysis with guanidine isothiocyanate. The intracellular DNA was handled in the same manner as the extracellular DNA. After precipitation by ammonium acetate and propanol, the intracellular DNA precipitate was dissolved, cut by restriction endonuclease, Hind III, applied to agarose gel and then treated as described by Southern to determine the quantity of replicative intermediate forms. The antiviral effect of the drug was determined by measuring a reduction of the amount of Dane particles extruded into the culture medium (extracellular DNA) and a similar decrease in tie intracellular replicative intermediates (intracellular replicative form).

[2] = HepG2 2.2.15, 240 h, Expt. 5, HepG2 2.2.15 cells, ten days, read-out: Percent (Reduction) Inhibition of Hepatitus B Virus DNA in Extracellular Media
[3] = HepG2 2.2.15, 240 h, Expt. 6, HepG2 2.2.15 cells, ten days, read-out: Percent (Reduction) Inhibition of Hepatitus B Virus DNA in Extracellular Media

CC#Cc1cn([C@@H]2O[C@H](CO)[C@@H](O)[C@@H]2O)c(=O)[nH]c1=O [1-(β-D-Arabinofuranosyl)-5-prop-1-ynyluracil]
CC50 at 96 h [1]: > 500 µM | Percent (Reduction) Inhibition of Hepatitus B Virus DNA in Extracellular Media (Hepatitis B Virus (HBV); Expt. 5, 11μM, HepG2 2.2.15 cells, ten days): N.I. | Percent (Reduction) Inhibition of Hepatitus B Virus DNA in Extracellular Media (Hepatitis B Virus (HBV); Expt. 6, 37μM, HepG2 2.2.15 cells, ten days): N.I. | inhibition at 33 µM (Hepatitis B Virus (HBV); [2]): 87.4% | inhibition at 37 µM (Hepatitis B Virus (HBV); HepG2 2.2.15, 240 h, Expt. 5, 37μM, HepG2 2.2.15 cells, ten days, read-out: Percent (Reduction) Inhibition of Hepatitus B Virus DNA in Extracellular Media): 55.3% | inhibition at 100 µM (Hepatitis B Virus (HBV); [2]): 94.4% | inhibition at 11 µM (Hepatitis B Virus (HBV); HepG2 2.2.15, 240 h, Expt. 6, 11μM, HepG2 2.2.15 cells, ten days, read-out: Percent (Reduction) Inhibition of Hepatitus B Virus DNA in Extracellular Media): 71.5% | inhibition at 33 µM (Hepatitis B Virus (HBV); [3]): 89.1% | inhibition at 100 µM (Hepatitis B Virus (HBV); [3]): 98.5% | inhibition at 100 µM (Hepatitis B Virus (HBV); Hepatitis B virus, HepG2 2.2.15, 240 h, Expt. 5, value in parentheses, read-out: % reduction in intracellular hepatitis B virus DNA replicative form): 88% | inhibition at 100 µM (Hepatitis B Virus (HBV); Hepatitis B virus, HepG2 2.2.15, 240 h, Expt. 6, value in parentheses, read-out: % reduction in intracellular hepatitis B virus DNA replicative form): 95.3% | inhibition at 1 µM (Hepatitis B Virus (HBV); Hepatitis B virus, HepG2 2.2.15, Expt.7, 1μM, read-out: Percent Inhibition of Hepatitis B Specific Intracellular Replicative Form (RF) DNA): 35% | inhibition at 10 µM (Hepatitis B Virus (HBV); Hepatitis B virus, HepG2 2.2.15, Expt.7, 10μM, read-out: Percent Inhibition of Hepatitis B Specific Intracellular Replicative Form (RF) DNA): 33% | inhibition at 100 µM (Hepatitis B Virus (HBV); Hepatitis B virus, HepG2 2.2.15, Expt.7, read-out: Percent Inhibition of Hepatitis B Specific Intracellular Replicative Form (RF) DNA): 42%
